“And” between values parts separate entries of the source, which are not always exact repeats. Equal values may be shown once. Read-outs that look alike come from different tables or passages of the source.
What was measured:
[1] = system: Plasmodium falciparum NF54; test: Parasite lactate dehydrogenase (pLDH) assay over 72 h, CQ-sensitive strain; assay type: cell-based
Procedure: (§1) The assay was performed in quadruplicate. The data were analyzed by nonlinear regression analysis using the GraphPad PRISM version 5.00 program to determine the IC50 of each compound.

[2] = system: Chinese Hamster Ovary (CHO) cell line, CHO-K1; test: MTT cytotoxicity assay; assay type: cell-based
Procedure: Cytotoxicity assays were conducted against the Chinese Hamster Ovary (CHO) cell line, ATCC CCL-61, strain CHO-K1. […] Cells were grown at 37°C in a humidified atmosphere of 5% CO2 and maintained by passage. Cells lines were seeded in 96-well microtitre plates at 10^4 cells/well in cell medium. […] DMSO (100 µL) was added to dissolve the MTT formazan precipitate, and the plates were gently agitated for 2 min to ensure homogeneity. Absorbance was measured at 540 nm using a Turner BioSystems, Inc. ModulusTM II Microplate Reader. The data were analyzed by nonlinear regression analysis using the GraphPad PRISM version 5.00 program to determine the IC50 of each compound.

[3] = system: Plasmodium falciparum DD2; test: Parasite lactate dehydrogenase (pLDH) assay over 72 h, CQ-resistant strain; assay type: cell-based; conditions: for IC50: Plasmodium falciparum, read-out: Plasmodium falciparum IC50 DD2
Procedure: as §1

[4] = In vivo PK, iv and oral, whole blood; design: species or system C57BL/6 mice
Procedure: • i. Animals. […] Food and water were available ad libitum. Mice were acclimatised to the experimental environment for 4-5 days prior to initiating the experiments. • ii. Oral drug administration. AD01 and PhX6 were prepared in 100% Millipore […] prepared in an aqueous suspension of 0.5% HPMC (w/v) containing 0.2% Tween 80 (v/v). The weighed compounds were sonicated and vortexed to ensure all solutions were homogenous. […] The total volume per administration was 200 μL. Blood samples were collected post-dose in lithium heparin microvials via tail bleeding at predetermined intervals at 0.5, 1, 3, 5, 8, 10 and 24 h. Samples were gently vortexed and stored at -80°C until analysis. • iii. Intravenous administration. AD01 and PhX6 were prepared in 100% Millipore […] prepared in an organic vehicle consisting of 10% N,N-dimethylacetamide, 30% polyethylene glycol 400 (PEG), 50% polypropylene glycol (PPG) and 10% ethanol (1:3:5:1, v/v) for intravenous (iv) dosing at 10 mg/kg. The total volume of administration was 80 μL. Blood samples were collected post-dose in lithium heparin microvials via tail bleeding at predetermined intervals at 0.16, 0.5, 1, 3, 5, 8, 10 and 24 h. Samples were gently vortexed and stored at -80°C until analysis. • iv. Sample processing and analysis. […] The mixture was vortexed vigorously for 1 min, and 5 μL of the supernatant were injected onto the analytical column following centrifugation (5590 g for 5 min). A Shimadzu HPLC and reverse phase Gemini NX-C18 column coupled to an AB Sciex 3200 Q TRAP MS was operated at unit resolution in the multiple reaction monitoring (MRM) mode as described above. […] Data analysis. Drug concentration versus time plots for each compound were used to determine maximal drug concentration C max, time T max to reach C max, elimination half-life t 1/2 and the area under the concentration-time curve from time zero to infinity, AUC0-inf. From these values the PK parameters clearance CL, volume of distribution Vd and oral bioavailability BA were determined using the non-compartmental analysis Microsoft Excel Add-In PKSolver ([Zhang et al., 2010]).

[5] = Kinetic solubility in PBS; assay type: physicochemical; conditions: phosphate buffer saline (PBS), aqueous buffer, kinetic from dmso stock
Procedure: . […] The aqueous mobile phase was water with 0.1% formic acid and the organic mobile phase was acetonitrile with 0.1% formic acid. The gradient method has a flow rate of 0.8 mL/min, with a total run time of 2.5 min starting at 5% organic and increasing to 95% at 1.4 min, holding for 40 s before returning to 5% to re-equilibrate the column. • ii. Lipophilicity. Stock solutions (10 mM) of compounds were diluted to 100 μM in 96-well deep-well plate containing 300 µL of 1-octanol and 300 µL of phosphate buffer at pH 7.4. The plate was agitated on an orbital shaker at 750 rpm for 2 h. The organic and buffer layers of each well were transferred separately to a new analysis plate. The samples were analysed with the HPLC diode array detection as described for kinetic solubility. Samples from both layers were analysed to determine LogD7.4 values. • iii. Passive permeability. A parallel artificial membrane permeation assay (PAMPA) was used to assess the passive permeability of compounds with a 96-well MultiScreen filter plate ([…] pore size, Millipore). The filter plate was precoated with 5% hexadecane in hexane. Stock solutions of compounds were diluted to 1 mM in a donor buffer (pH 6.5). Lucifer yellow was added to the apical wells of the precoated MultiScreen plate containing compound donor solution. The donor buffer solutions were spiked with each test compound (1 mM). The acceptor-buffer solution was prepared by adding 10 μL DMSO to 990 μL acceptor buffer (pH 7.4) and 250 μL were added to the basolateral (acceptor) wells. The donor plate was carefully inserted into the acceptor plate and incubated at room temperature for 4 h. After the incubation period, 50 μL of samples from the acceptor plate were transferred to a round bottom 96-well plate, together with 30 μL of donor buffer for matrix matching. Theoretical equilibrium samples for each test compound were prepared by adding 150 μL of donor solutions to 250 μL acceptor solutions and left at room temperature. These theoretical equilibrium samples represent complete transfer of the compound into the donor well. For the theoretical equilibrium samples, 80 μL were added to the analysis plate. Lastly, 160 μL of the internal standard carbamazepine (0.1 μM) was added to all acceptor and equilibrium samples. A portion of the sample containing Lucifer yellow was analyzed on a BioRad iMarkTM Microplate Absorbance Reader (BioRad, Hercules, CA, United States; […]. Samples were analysed using reverse phase Gemini NX-C18 column (5 μm, 2.1 mm × 50 mm) with a Shimadzu HPLC coupled with an AB Sciex 3200 Q TRAP MS). […]. Plasma stability. Stock solutions of compounds in DMSO (10 mM) were used to spike pooled human plasma. 90 μL of each sample was transferred in duplicate to 6 different wells of a 96-deep well plate. An aliquot of each sample was immediately quenched with ice cold acetonitrile containing the internal standard carbamazepine (0.1 µM), after which the plate was incubated in a water bath (37°C for […]). Aliquots of samples were removed at 5, 15, 40, 60 and 180 min and quenched with ice cold acetonitrile. After samples of the final time point were precipitated, the supernatant was transferred to a round bottom 96-well plate for analysis by LC-MS/MS using a reverse phase Gemini NX-C18 column (5 μm, 2.1 mm × 50 mm) with a Shimadzu HPLC coupled with an AB Sciex 3200 Q TRAP MS) operated at unit resolution in the multiple reaction monitoring (MRM) mode. The aqueous phase consisted of water with 0.1% formic acid and the organic mobile phase consisted of methanol and acetonitrile (1:1, (v/v)) with 0.1% formic acid. […]. The peak area ratios were used to calculate the amount of parent compound remaining and t1/2 in plasma, using the following equations.

[6] = Plasma stability in pooled human plasma; assay type: in vitro ADME; conditions: 37°C
Procedure: . […] The aqueous mobile phase was water with 0.1% formic acid and the organic mobile phase was acetonitrile with 0.1% formic acid. The gradient method has a flow rate of 0.8 mL/min, with a total run time of 2.5 min starting at 5% organic and increasing to 95% at 1.4 min, holding for 40 s before returning to 5% to re-equilibrate the column. • ii. Lipophilicity. Stock solutions (10 mM) of compounds were diluted to 100 μM in 96-well deep-well plate containing 300 µL of 1-octanol and 300 µL of phosphate buffer at pH 7.4. The plate was agitated on an orbital shaker at 750 rpm for 2 h. The organic and buffer layers of each well were transferred separately to a new analysis plate. The samples were analysed with the HPLC diode array detection as described for kinetic solubility. Samples from both layers were analysed to determine LogD7.4 values. • iii. Passive permeability. A parallel artificial membrane permeation assay (PAMPA) was used to assess the passive permeability of compounds with a 96-well MultiScreen filter plate ([…] pore size, Millipore). The filter plate was precoated with 5% hexadecane in hexane. Stock solutions of compounds were diluted to 1 mM in a donor buffer (pH 6.5). Lucifer yellow was added to the apical wells of the precoated MultiScreen plate containing compound donor solution. The donor buffer solutions were spiked with each test compound (1 mM). The acceptor-buffer solution was prepared by adding 10 μL DMSO to 990 μL acceptor buffer (pH 7.4) and 250 μL were added to the basolateral (acceptor) wells. The donor plate was carefully inserted into the acceptor plate and incubated at room temperature for 4 h. After the incubation period, 50 μL of samples from the acceptor plate were transferred to a round bottom 96-well plate, together with 30 μL of donor buffer for matrix matching. Theoretical equilibrium samples for each test compound were prepared by adding 150 μL of donor solutions to 250 μL acceptor solutions and left at room temperature. These theoretical equilibrium samples represent complete transfer of the compound into the donor well. For the theoretical equilibrium samples, 80 μL were added to the analysis plate. Lastly, 160 μL of the internal standard carbamazepine (0.1 μM) was added to all acceptor and equilibrium samples. A portion of the sample containing Lucifer yellow was analyzed on a BioRad iMarkTM Microplate Absorbance Reader (BioRad, Hercules, CA, United States; […]. Samples were analysed using reverse phase Gemini NX-C18 column (5 μm, 2.1 mm × 50 mm) with a Shimadzu HPLC coupled with an AB Sciex 3200 Q TRAP MS). […]. Plasma stability. Stock solutions of compounds in DMSO (10 mM) were used to spike pooled human plasma. […]
. Plasma protein binding was determined in pooled human plasma using an ultracentrifugation method. […]

[7] = Metabolic stability in human liver microsomes; assay type: in vitro ADME
Procedure: (§2) Eq. 4 Predicted t1/2 t1/2=−0.693/λ (4) Where λ is the slope of the Ln % parent remaining vs. time curve. • v. Plasma protein binding. Plasma protein binding was determined in pooled human plasma using an ultracentrifugation method. Stock solutions of test compounds (10 mM) were diluted in phosphate buffer and spiked into plasma in deep well 96-well plates (10 µM). An aliquot of each compound was immediately precipitated with ice cold acetonitrile containing the internal standard carbamazepine (0.1 μM). These served as total concentration samples. After incubation in a water bath at 37°C for 1 h, the samples were transferred to ultracentrifuge tubes in duplicate and centrifuged for 4 h at 37°C and 30,000 g (Optima L-80XP, Beckman). Following centrifugation, the supernatant was transferred to the plate containing the total concentration samples and precipitated with ice cold acetonitrile containing the internal standard. Analyte concentrations of all compounds were determined via LC-MS/MS (reverse phase Gemini NX-C18 column and Shimadzu HPLC coupled with an AB Sciex 3200 Q TRAP MS) as described above. • vi. Metabolic stability. A 5-point metabolic stability assay in human and mouse liver microsomes were performed in duplicate in 96-well plates. […] The cofactor NADPH was added, and the reactions were subsequently stopped at time points 5, 10, 30 and 60 min by removal of an aliquot and quenching with ice cold acetonitrile containing the internal standard. The supernatant of all samples was analysed via LC-MS/MS analysis (reverse phase Gemini NX-C18 column and Shimadzu HPLC and AB Sciex 3200 Q TRAP MS) as described above.

[8] = Metabolic stability in mouse liver microsomes; assay type: in vitro ADME
Procedure: as §2

[9] = design: method as in Agency, 2009; conditions: ref Agency, 2009; cited from earlier work
[10] = human, in vivo; cited from earlier work
[11] = system: gametocytes; design: method as in Coertzen et al., 2018; conditions: ref Coertzen et al., 2018; cited from earlier work
[12] = system: asexual blood stage of P. falciparum; design: method as in Coertzen et al., 2018; conditions: ref Coertzen et al., 2018; cited from earlier work
[13] = design: method as in Wittlin et al., 2013; conditions: ref Wittlin et al., 2013; cited from earlier work
[14] = system: multidrug resistant Pf K1 strain; design: method as in Wittlin et al., 2013; conditions: tritiated hypoxanthine assay; ref Wittlin et al., 2013; read-out: Activity against multidrug resistant Pf K1 strain; cited from earlier work
[15] = design: method as in Gibhard et al., 2021; conditions: murine model, ref Gibhard et al., 2021; cited from earlier work
[16] = C57BL/6, mouse, 10 mg/kg, mice, intravenous, whole blood
[17] = C57BL/6, mouse, whole blood, po, 5 mg/kg

## C[C@H]1[C@H](N2CCS(=O)(=O)CC2)O[C@@H]2O[C@@]3(C)CC[C@H]4[C@H](C)CC[C@@H]1[C@@]24OO3 [AMS, artemisone]
[1]; CQ-sensitive NF54, pLDH 72 h, n = 3, read-out: Plasmodium falciparum IC50 NF54
  IC50: 4.5 ± 2.42 nM
[2]; Cricetulus griseus, CHO cells, MTT
  IC50: > 249000 nM
[2]; cytotoxicity IC50/activity IC50, CHO/DD2
  Selectivity index CHO/resistant Pf strain: >1,000
[2]; cytotoxicity IC50/activity IC50, CHO/NF54
  Selectivity index CHO/sensitive Pf strain: >1,000
[3]; IC50 (resistant strain)/IC50 (sensitive strain), DD2/NF54
  Resistance index: 1.2
[3]; CQ-resistant DD2, pLDH 72 h, n = 3
  IC50: 5.48 ± 2.03 nM

## CCN(CC)CCCC(C)Nc1ccnc2cc(Cl)ccc12 (stereo not shown) [CQ, chloroquine, reference compound]
[1]; NF54, 72 h, read-out: Plasmodium falciparum IC50 NF54
  IC50: 9.9 ± 0.4 nM
[3]; DD2, 72 h
  IC50: 142 ± 16.8 nM

## CCNC(=S)NN=C(c1ccccn1)c1ccccn1 [DpNEt]
[4]; [16]
  Vd: 1 ± 0.16 L/kg
  clearance: 0.612 ± 0.0558 L/h/kg
[4]; C57BL/6, mouse, whole blood, iv, 10 mg/kg, mice, intravenous, whole blood, read-out: t1/2 (converted)
  half-life: 1.2 h
[4]; [17]
  Cmax: 6.32 ± 1.15 µM
  Tmax: 0.7 ± 0.12 h
[4]; mice, intravenous, whole blood
  AUC0-∞: 1795 ± 198 µmol·min/L
  t1/2: 1.12 ± 0.13 h
[4]; mice, oral bioavailability
  BA: 8% and 8 ± 2%
[4]; mice, oral gavage: AD01 4.6, PhX6 4.5, DpNEt 5 mg/kg
  AUC0-∞: 550 ± 148 µmol·min/L
[5]; PBS pH 2, read-out: Predicted solubility pH 2
  solubility at 2 h: > 150 µM
[5]; PBS pH 6.5, read-out: Predicted solubility pH 6.5
  solubility at 2 h: > 150 µM
[5]; PBS pH 7.4, read-out: Predicted solubility pH 7.4
  solubility at 2 h: > 150 µM
[6]
  half-life: > 2.5 h
[7]
  CLint scaled: 0.24 L/h/kg
[8]
  CLint scaled: 1.34 L/h/kg

## CN(C)c1ccc2nc3ccc(=[N+](C)C)cc-3sc2c1 [MB, methylene blue]
[9]
  Protein bound: 94%
[10]
  Bioavailability: 72.3± 23.9%
  Mean terminal half-life: 5.25 h
[11]
  Interaction with artemisone, gametocytocidal activity: synergistically enhanced
[12]
  Interaction with artemisone against the asexual blood stage: only an additive effect

## CCN(CC)c1ccc2nc3c4ccccc4/c(=N\c4ccncc4)cc-3oc2c1 [SSJ-183]
[13]
  half-life: 10.3 h
[14]
  IC50: 7.6 nM

## C[C@H]1[C@H](N2CCSCC2)O[C@@H]2O[C@@]3(C)CC[C@H]4[C@H](C)CC[C@@H]1[C@@]24OO3 [artemiside]
[15]
  Cmax relative to that after oral administration of artemisone: 2.6 fold
